# Reference: publication PMC12373846, “Hemoglobin as a pseudoperoxidase and drug target for oxidative stress-related diseases” (Signal Transduction and Targeted Therapy, 2025)
# Several values for one entry are separate records, joined by “and”; a condition that tells them apart may be missing. Identical values can stand only once. Like-named read-outs stand apart in the source and are kept apart here.
# Assays:
# Assay in all cases: SafetyScreen87 panel
# [1] = molecular target: T1, 5-HT1A (h) (agonist radioligand) (Homo sapiens, UniProt P08908); details: 1.0E-06 M; mean; read-out: % Inhibition of Control Specific Binding (1st, 2nd, Mean)
# T1 construct: purchased DiscoverX KINOMEscan scanEDGE; Eurofins Cerep SafetyScreen87
# Description: (§1) The possibility of KDS12025 on kinase off-target, the KINOMEscan panel of scanEDGE assay was conducted in DiscoverX (CA, USA) using a site-directed competition binding with the test compounds. The assay results are given in Supplementary Table 4 and experimental information is available on the DiscoverX web page (www.discoverx.com). Moreover, the Delta SafetyScreen87 panel assay was conducted in Eurofins Discovery (Cerep, France). The assay results are given in Supplementary Table 5 and experimental information is available on the DiscoverX web page (https://www.eurofinsdiscoveryservices.com).
# [2] = molecular target: T2, 5-HT2A (h) (agonist radioligand) (Homo sapiens, UniProt P28223); details: 1.0E-06 M; mean; read-out: % Inhibition of Control Specific Binding (1st, 2nd, Mean)
# T2 construct: purchased DiscoverX KINOMEscan scanEDGE; Eurofins Cerep SafetyScreen87
# Description: as §1
# [3] = molecular target: T3, 5-HT2B (h) (agonist radioligand) (Homo sapiens, UniProt P41595); details: 1.0E-06 M; mean; read-out: % Inhibition of Control Specific Binding (1st, 2nd, Mean)
# T3 construct: purchased DiscoverX KINOMEscan scanEDGE; Eurofins Cerep SafetyScreen87
# Description: as §1
# [4] = molecular target: T4, A1 (h) (antagonist radioligand) (Homo sapiens, UniProt P30542); details: 1.0E-06 M, read-out: % Inhibition of Control Specific Binding (1st, 2nd, Mean)
# T4 construct: purchased DiscoverX KINOMEscan scanEDGE; Eurofins Cerep SafetyScreen87
# Description: as §1
# [5] = tested on: AMPA (agonist radioligand); details: 1.0E-06 M, read-out: % Inhibition of Control Specific Binding (1st, 2nd, Mean)
# Description: as §1
# [6] = molecular target: T5, AR(h) (agonist radioligand) (Homo sapiens, UniProt P10275, T878A); details: 1.0E-06 M; mean; read-out: % Inhibition of Control Specific Binding (1st, 2nd, Mean)
# T5 construct: purchased DiscoverX KINOMEscan scanEDGE; Eurofins Cerep SafetyScreen87
# Description: as §1
# [7] = molecular target: T6, AT1 (h) (antagonist radioligand) (Homo sapiens, UniProt P30556); details: 1.0E-06 M, read-out: % Inhibition of Control Specific Binding (1st, 2nd, Mean)
# T6 construct: purchased DiscoverX KINOMEscan scanEDGE; Eurofins Cerep SafetyScreen87
# Description: as §1
# [8] = molecular target: T7, B2 (h) (agonist radioligand) (Homo sapiens, UniProt P30411)
# T7 construct: purchased DiscoverX KINOMEscan scanEDGE; Eurofins Cerep SafetyScreen87
# Description: as §1
# [9] = tested on: BZD (central) (agonist radioligand); details: 1.0E-06 M, read-out: % Inhibition of Control Specific Binding (1st, 2nd, Mean)
# Description: as §1
# [10] = molecular target: T8, CCK2 (CCKB) (h) (agonist radioligand) (Homo sapiens, UniProt P32239)
# T8 construct: purchased DiscoverX KINOMEscan scanEDGE; Eurofins Cerep SafetyScreen87
# Description: as §1
# [11] = molecular target: T9, CCR1 (h) (agonist radioligand) (Homo sapiens, UniProt P32246)
# T9 construct: purchased DiscoverX KINOMEscan scanEDGE; Eurofins Cerep SafetyScreen87
# Description: as §1
# [12] = molecular target: T10, Ca2+ channel (N) (antagonist radioligand) (Rattus norvegicus, UniProt Q02294)
# T10 construct: Eurofins Discovery (Cerep, France) SafetyScreen87 panel
# Description: as §1
# [13] = molecular target: T11, D2S (h) (agonist radioligand) (Homo sapiens, UniProt P14416); details: 1.0E-06 M, read-out: % Inhibition of Control Specific Binding (1st, 2nd, Mean)
# T11 construct: purchased DiscoverX KINOMEscan scanEDGE; Eurofins Cerep SafetyScreen87
# Description: as §1
# [14] = molecular target: T12, Estrogen ER alpha (h) (agonist radioligand) (Homo sapiens, UniProt P03372); details: 1.0E-06 M; mean; read-out: % Inhibition of Control Specific Binding (1st, 2nd, Mean)
# T12 construct: purchased DiscoverX KINOMEscan scanEDGE; Eurofins Cerep SafetyScreen87
# Description: as §1
# [15] = molecular target: T13, GABAB(1b) (h) (antagonist radioligand) (Homo sapiens, UniProt Q9UBS5); details: 1.0E-06 M, read-out: % Inhibition of Control Specific Binding (1st, 2nd, Mean)
# T13 construct: purchased DiscoverX KINOMEscan scanEDGE; Eurofins Cerep SafetyScreen87
# Description: as §1
# [16] = molecular target: T14, H1 (h) (antagonist radioligand) (Homo sapiens, UniProt P35367); details: 1.0E-06 M; mean; read-out: % Inhibition of Control Specific Binding (1st, 2nd, Mean)
# T14 construct: purchased DiscoverX KINOMEscan scanEDGE; Eurofins Cerep SafetyScreen87
# Description: as §1
# [17] = molecular target: T15, H2 (h) (antagonist radioligand) (Homo sapiens, UniProt P25021); details: read-out: % Inhibition of Control Specific Binding (1st, 2nd, Mean); 1.0E-06 M
# T15 construct: purchased DiscoverX KINOMEscan scanEDGE; Eurofins Cerep SafetyScreen87
# Description: as §1
# [18] = tested on: KV channel (antagonist radioligand); details: 1.0E-06 M, read-out: % Inhibition of Control Specific Binding (1st, 2nd, Mean)
# Description: as §1
# [19] = molecular target: T16, M3 (h) (antagonist radioligand) (Homo sapiens, UniProt P20309); details: 1.0E-06 M; mean; read-out: % Inhibition of Control Specific Binding (1st, 2nd, Mean)
# T16 construct: purchased DiscoverX KINOMEscan scanEDGE; Eurofins Cerep SafetyScreen87
# Description: as §1
# [20] = molecular target: T17, MAO-A (antagonist radioligand) (Rattus norvegicus, UniProt P21396); details: 1.0E-06 M; mean; read-out: % Inhibition of Control Specific Binding (1st, 2nd, Mean)
# T17 construct: purchased DiscoverX KINOMEscan scanEDGE; Eurofins Cerep SafetyScreen87
# Description: as §1
# [21] = tested on: Na+ channel (site 2) (antagonist radioligand); details: 1.0E-06 M, read-out: % Inhibition of Control Specific Binding (1st, 2nd, Mean)
# Description: as §1
# [22] = molecular target: T18, Potassium Channel hERG (human)- [3H] Dofetilide (Homo sapiens, UniProt Q12809); details: 1.0E-06 M, read-out: % Inhibition of Control Specific Binding (1st, 2nd, Mean)
# T18 construct: Eurofins Discovery (Cerep, France) SafetyScreen87 panel
# Description: as §1
# [23] = molecular target: T19, RARalpha (h) (agonist radioligand) (Homo sapiens, UniProt P10276); details: 1.0E-06 M; read-out: % Inhibition of Control Specific Binding (1st, 2nd, Mean)
# T19 construct: purchased DiscoverX KINOMEscan scanEDGE; Eurofins Cerep SafetyScreen87
# Description: as §1
# [24] = molecular target: T20, V1a (h) (agonist radioligand) (Homo sapiens, UniProt P37288); details: 1.0E-06 M; mean; read-out: % Inhibition of Control Specific Binding (1st, 2nd, Mean)
# T20 construct: purchased DiscoverX KINOMEscan scanEDGE; Eurofins Cerep SafetyScreen87
# Description: as §1
# [25] = molecular target: T21, alpha 1A (h) (antagonist radioligand) (Homo sapiens, UniProt P35348); details: 1.0E-06 M, read-out: % Inhibition of Control Specific Binding (1st, 2nd, Mean)
# T21 construct: purchased DiscoverX KINOMEscan scanEDGE; Eurofins Cerep SafetyScreen87
# Description: as §1
# [26] = molecular target: T22, alpha 1B (h) (antagonist radioligand) (Homo sapiens, UniProt P35368); details: 1.0E-06 M, read-out: % Inhibition of Control Specific Binding (1st, 2nd, Mean)
# T22 construct: purchased DiscoverX KINOMEscan scanEDGE; Eurofins Cerep SafetyScreen87
# Description: as §1
# [27] = molecular target: T23, alpha 2B (h) (antagonist radioligand) (Homo sapiens, UniProt P18089); details: 1.0E-06 M, read-out: % Inhibition of Control Specific Binding (1st, 2nd, Mean)
# T23 construct: purchased DiscoverX KINOMEscan scanEDGE; Eurofins Cerep SafetyScreen87
# Description: as §1
# [28] = molecular target: T24, dopamine transporter (h) (antagonist radioligand) (Homo sapiens, UniProt Q01959); details: 1.0E-06 M, read-out: % Inhibition of Control Specific Binding (1st, 2nd, Mean)
# T24 construct: Eurofins Discovery (Cerep, France) SafetyScreen87 panel
# Description: as §1
# [29] = tested on: glycine (strychnine-insensitive) (antagonist radioligand); details: 1.0E-06 M; read-out: % Inhibition of Control Specific Binding (1st, 2nd, Mean)
# Description: as §1
# [30] = molecular target: T25, mGluR5 (h) (agonist radioligand) (Homo sapiens, UniProt P41594); details: 1.0E-06 M, read-out: % Inhibition of Control Specific Binding (1st, 2nd, Mean)
# T25 construct: purchased DiscoverX KINOMEscan scanEDGE; Eurofins Cerep SafetyScreen87
# Description: as §1
# [31] = molecular target: T26, mu (MOP) (h) (agonist radioligand) (Homo sapiens, UniProt P35372); details: 1.0E-06 M; mean; read-out: % Inhibition of Control Specific Binding (1st, 2nd, Mean)
# T26 construct: purchased DiscoverX KINOMEscan scanEDGE; Eurofins Cerep SafetyScreen87
# Description: as §1
# [32] = 1.0E-06 M; read-out: % Inhibition of Control Specific Binding (1st, 2nd, Mean)
# [33] = read-out: % Inhibition of Control Specific Binding (1st, 2nd, Mean); 1.0E-06 M
# T23 sequence (P18089 whole entry): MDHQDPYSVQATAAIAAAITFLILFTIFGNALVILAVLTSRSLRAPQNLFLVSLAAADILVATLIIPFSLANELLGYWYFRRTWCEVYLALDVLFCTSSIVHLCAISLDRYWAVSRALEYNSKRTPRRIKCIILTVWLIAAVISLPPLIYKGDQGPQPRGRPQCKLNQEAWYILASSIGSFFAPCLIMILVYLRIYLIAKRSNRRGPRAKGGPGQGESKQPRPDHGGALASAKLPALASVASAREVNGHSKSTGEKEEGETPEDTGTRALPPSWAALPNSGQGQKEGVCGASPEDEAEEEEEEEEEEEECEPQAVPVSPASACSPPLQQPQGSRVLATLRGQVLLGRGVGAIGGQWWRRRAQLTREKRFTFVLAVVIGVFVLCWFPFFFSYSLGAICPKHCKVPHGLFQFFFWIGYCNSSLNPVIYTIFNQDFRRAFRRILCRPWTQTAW
# T21 sequence (P35348 whole entry): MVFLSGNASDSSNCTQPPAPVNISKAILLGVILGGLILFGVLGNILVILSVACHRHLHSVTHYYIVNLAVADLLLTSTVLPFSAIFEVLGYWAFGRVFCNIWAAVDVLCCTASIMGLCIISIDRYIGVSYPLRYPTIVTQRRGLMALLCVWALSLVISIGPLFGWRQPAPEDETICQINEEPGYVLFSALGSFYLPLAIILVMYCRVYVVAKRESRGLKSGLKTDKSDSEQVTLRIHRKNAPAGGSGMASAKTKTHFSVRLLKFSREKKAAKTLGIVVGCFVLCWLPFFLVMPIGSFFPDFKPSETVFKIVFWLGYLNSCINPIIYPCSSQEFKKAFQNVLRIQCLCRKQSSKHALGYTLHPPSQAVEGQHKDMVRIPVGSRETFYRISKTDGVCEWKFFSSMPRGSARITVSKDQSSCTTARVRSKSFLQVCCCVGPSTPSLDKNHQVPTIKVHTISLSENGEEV
# T11 sequence (P14416 1-414 isoform P14416-2): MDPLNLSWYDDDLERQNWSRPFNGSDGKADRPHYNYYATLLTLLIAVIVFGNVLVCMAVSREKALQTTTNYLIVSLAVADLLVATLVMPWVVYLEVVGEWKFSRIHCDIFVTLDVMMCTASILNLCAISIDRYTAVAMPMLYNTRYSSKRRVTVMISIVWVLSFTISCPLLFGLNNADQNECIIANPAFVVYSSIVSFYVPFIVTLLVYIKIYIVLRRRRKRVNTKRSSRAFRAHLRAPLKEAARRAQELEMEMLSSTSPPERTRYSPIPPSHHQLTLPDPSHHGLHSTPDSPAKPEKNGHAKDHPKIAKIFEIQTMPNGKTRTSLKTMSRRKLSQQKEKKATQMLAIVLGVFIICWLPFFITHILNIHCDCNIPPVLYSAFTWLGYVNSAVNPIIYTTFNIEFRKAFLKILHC
# T13 sequence (Q9UBS5 1-844 isoform Q9UBS5-2): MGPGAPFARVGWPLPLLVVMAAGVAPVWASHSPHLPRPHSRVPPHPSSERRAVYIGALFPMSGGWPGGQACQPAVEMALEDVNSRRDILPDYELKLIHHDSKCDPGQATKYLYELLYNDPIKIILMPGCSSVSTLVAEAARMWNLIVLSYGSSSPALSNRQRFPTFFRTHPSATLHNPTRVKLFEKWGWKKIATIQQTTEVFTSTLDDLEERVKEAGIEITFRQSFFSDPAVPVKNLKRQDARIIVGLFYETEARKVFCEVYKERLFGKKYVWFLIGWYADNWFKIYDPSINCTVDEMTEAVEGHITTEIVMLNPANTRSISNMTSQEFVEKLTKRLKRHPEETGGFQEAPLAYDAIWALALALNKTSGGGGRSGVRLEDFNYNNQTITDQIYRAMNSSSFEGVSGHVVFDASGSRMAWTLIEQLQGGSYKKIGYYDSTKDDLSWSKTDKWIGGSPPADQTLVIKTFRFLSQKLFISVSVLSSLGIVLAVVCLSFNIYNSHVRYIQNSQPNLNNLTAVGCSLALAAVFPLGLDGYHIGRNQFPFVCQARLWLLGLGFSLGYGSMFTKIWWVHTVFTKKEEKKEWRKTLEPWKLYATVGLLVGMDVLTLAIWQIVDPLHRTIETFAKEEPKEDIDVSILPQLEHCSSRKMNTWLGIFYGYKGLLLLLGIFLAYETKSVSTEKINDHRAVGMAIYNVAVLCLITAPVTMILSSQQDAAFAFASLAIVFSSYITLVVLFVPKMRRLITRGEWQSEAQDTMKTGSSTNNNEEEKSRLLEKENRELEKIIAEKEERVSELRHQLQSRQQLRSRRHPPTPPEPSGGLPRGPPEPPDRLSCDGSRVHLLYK
# T4 sequence (P30542 whole entry): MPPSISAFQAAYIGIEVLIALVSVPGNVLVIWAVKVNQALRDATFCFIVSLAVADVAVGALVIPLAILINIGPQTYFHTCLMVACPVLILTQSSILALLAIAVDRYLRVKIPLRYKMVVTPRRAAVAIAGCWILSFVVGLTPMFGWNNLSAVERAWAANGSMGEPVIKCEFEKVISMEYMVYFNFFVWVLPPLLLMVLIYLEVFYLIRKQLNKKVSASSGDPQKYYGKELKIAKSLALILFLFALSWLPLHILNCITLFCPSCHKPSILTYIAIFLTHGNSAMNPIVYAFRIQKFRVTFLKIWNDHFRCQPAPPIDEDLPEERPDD
# T25 sequence (P41594 21-1212): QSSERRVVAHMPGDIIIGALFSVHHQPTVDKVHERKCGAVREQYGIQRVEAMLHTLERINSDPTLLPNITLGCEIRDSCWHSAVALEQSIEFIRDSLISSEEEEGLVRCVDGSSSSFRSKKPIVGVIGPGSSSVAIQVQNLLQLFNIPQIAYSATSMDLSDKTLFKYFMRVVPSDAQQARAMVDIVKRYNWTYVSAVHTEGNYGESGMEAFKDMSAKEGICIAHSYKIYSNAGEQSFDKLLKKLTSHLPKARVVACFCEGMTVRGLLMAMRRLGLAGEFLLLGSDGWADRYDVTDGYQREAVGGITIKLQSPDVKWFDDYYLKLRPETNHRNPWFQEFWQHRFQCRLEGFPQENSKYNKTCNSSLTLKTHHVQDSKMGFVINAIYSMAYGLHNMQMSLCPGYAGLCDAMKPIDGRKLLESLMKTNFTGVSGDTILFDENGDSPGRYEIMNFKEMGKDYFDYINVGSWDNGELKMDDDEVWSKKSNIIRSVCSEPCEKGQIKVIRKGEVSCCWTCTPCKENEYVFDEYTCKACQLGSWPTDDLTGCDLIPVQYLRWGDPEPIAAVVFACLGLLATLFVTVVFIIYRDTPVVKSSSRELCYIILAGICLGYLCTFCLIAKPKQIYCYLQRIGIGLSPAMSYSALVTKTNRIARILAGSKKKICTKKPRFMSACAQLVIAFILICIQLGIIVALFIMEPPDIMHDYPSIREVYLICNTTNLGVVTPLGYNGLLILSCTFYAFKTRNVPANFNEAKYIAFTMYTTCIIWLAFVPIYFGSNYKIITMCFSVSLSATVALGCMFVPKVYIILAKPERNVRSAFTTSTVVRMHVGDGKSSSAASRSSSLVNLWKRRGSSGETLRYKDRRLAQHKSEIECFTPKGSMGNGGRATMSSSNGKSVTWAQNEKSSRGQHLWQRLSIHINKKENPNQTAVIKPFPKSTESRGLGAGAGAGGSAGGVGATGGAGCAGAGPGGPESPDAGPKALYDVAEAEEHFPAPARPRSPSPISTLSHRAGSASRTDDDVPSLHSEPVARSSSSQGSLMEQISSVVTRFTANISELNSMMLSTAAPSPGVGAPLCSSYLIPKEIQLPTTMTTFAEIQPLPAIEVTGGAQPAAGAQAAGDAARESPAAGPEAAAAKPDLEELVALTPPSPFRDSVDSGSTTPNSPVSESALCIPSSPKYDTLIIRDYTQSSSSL
# T24 sequence (Q01959 whole entry): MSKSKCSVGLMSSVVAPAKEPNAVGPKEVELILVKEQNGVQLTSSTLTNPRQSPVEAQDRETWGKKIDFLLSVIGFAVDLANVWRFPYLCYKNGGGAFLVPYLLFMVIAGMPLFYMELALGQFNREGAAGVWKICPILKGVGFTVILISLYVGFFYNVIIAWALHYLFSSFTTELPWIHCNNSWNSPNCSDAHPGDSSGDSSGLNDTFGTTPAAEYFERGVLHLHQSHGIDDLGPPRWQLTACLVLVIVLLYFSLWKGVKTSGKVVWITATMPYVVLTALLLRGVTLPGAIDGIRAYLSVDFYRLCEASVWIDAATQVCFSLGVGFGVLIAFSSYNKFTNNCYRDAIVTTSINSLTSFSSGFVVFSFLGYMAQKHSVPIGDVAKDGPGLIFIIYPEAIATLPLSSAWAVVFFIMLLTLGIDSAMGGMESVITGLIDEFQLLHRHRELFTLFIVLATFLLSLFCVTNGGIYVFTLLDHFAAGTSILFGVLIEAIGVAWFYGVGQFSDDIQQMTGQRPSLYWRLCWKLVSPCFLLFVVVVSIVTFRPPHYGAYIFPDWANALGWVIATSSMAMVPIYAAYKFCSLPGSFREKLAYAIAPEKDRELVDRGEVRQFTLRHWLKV
# T22 sequence (P35368 whole entry): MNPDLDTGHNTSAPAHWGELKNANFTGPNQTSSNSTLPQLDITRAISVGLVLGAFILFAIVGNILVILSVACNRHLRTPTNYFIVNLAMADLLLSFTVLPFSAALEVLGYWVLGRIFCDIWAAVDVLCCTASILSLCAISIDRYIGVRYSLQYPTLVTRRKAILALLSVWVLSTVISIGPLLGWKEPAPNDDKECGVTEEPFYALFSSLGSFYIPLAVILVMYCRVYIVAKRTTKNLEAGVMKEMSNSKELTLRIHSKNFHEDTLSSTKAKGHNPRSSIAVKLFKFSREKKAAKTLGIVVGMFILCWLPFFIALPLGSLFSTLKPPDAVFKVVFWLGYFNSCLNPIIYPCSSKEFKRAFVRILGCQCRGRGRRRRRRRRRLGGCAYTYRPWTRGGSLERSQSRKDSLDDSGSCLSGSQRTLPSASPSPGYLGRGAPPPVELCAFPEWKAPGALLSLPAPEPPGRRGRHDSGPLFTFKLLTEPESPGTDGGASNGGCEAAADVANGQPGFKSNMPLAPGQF
compound,measurement,setting,value
"CNc1ccc(NCCc2ccccc2OC)cc1.Cl [KDS12025, N^1-(2-methoxyphenethyl)-N^4-methylbenzene-1,4-diamine hydrochloride salt]",activity,[1],62.4%
same,activity,[2],81.8%
same,activity,[3],63.9%
same,activity,[4]; mean,114%
same,activity,[4],115% and 114%
same,activity,[5]; mean,100%
same,activity,[5],98% and 103%
same,activity,[6],90.9%
same,activity,[7]; mean,87.4%
same,activity,[7],82.3% and 92.5%
same,activity,[8]; [32],99.4%
same,activity,[8]; [33],104%
same,activity,[9]; mean,99.5%
same,activity,[9],102% and 96.6%
same,activity,[10]; [32],97%
same,activity,[10]; [33],107%
same,activity,[11]; [32],90.4%
same,activity,[11]; [33],88.2%
same,activity,[12]; [32],118%
same,activity,[12]; [33],104%
same,activity,[13]; mean,61.9%
same,activity,[13],64% and 59.8%
same,activity,[14],95.3%
same,activity,[15]; mean,104%
same,activity,[15],106% and 101%
same,activity,[16],88.2%
same,activity,[17],94.2%
same,activity,[18]; mean,96.5%
same,activity,[18],85.3% and 108%
same,activity,[19],85.5%
same,activity,[20],100%
same,activity,[21]; mean,74.5%
same,activity,[21],83.6% and 65.5%
same,activity,[22]; mean,68.5%
same,activity,[22],66.8%
same,activity,[23],105%
same,activity,[24],110%
same,activity,[25]; mean,87.1%
same,activity,[25],87.6% and 86.5%
same,activity,[26]; mean,65.4%
same,activity,[26],61.4% and 69.4%
same,activity,[27]; mean,84.2%
same,activity,[27],81.9% and 86.6%
same,activity,[28]; mean,107%
same,activity,[28],102% and 111%
same,activity,[29],96.8% and 100%
same,activity,[30]; mean,115%
same,activity,[30],114% and 116%
same,activity,[31],84.5%
